Measured values: the supplement of paper PMC11451515

Key:
Conditions in all cases: 48 h
NOMO1 = experiment: AUC of viability dose-response curve (% viability x log10 dose units); higher = less sensitive
In short: (§1)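 Medium-adapted leukemia cells in 1536-well plates, at 500 or 1000 cells/well, were incubated for 48 h at 37°C with library compounds in DMSO at 11 threefold doses from 47 μM to 0.79 nM. CellTiter-Glo One luminescence normalised per plate to DMSO and cell-free wells was fitted with a four-parameter log-logistic model over log10 doses. Area under the curve was integrated from this fit by trapezoidal rule, with curves beyond full viability scaled and failed quality-control curves removed.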

SEM cells [1] = experiment: as above
In short: as §1

P12-Ichikawa [2] = experiment: as above
In short: as §1

SEM cells [3] = experiment: cell viability relative to DMSO control; higher = less cytotoxic
In short: (§2)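 Viability was expressed as a per-plate percentage of DMSO wells, with cell-free wells as background. Leukemia cells (NOMO1 or SEM at 500 cells/well, P12-Ichikawa at 1000 cells/well) were adapted for at least four passages in each medium and seeded in 1536-well plates (5 μl). Library compounds in DMSO were pin-dosed over an 11-point threefold series from 47 μM to 0.79 nM, and CellTiter-Glo One luminescence was read after 48 h at 37°C.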

P12-Ichikawa [4] = experiment: as above
In short: as §2

O=C(NCC1CCCCN1)c1cc(OCC(F)(F)F)ccc1OCC(F)(F)F (centres undefined)
AUC of viability dose-response curve
Conditions | NOMO1 | P12-Ichikawa [2] | SEM cells [1]
HPLM + 10% dialyzed FBS | 326 | 352 | 457
RPMI 5 mM glucose + 10% FBS | 304 | 353 | 464
RPMI 5 mM glucose + 10% dialyzed FBS | 317 | 375 | 468

cell viability [%], SEM cells [3]
Conditions | HPLM + 10% dialyzed FBS | RPMI 5 mM glucose + 10% FBS
0.000781 µM | 104 | 117
0.00234 µM | 130 | 115
0.00702 µM | 115 | 124
0.0211 µM | 128 | 137
0.0632 µM | 130 | 121
0.19 µM | 151 | 127
0.569 µM | 130 | 131
1.71 µM | 140 | 128
5.12 µM | 115 | 120
15.4 µM | 118 | 121
46.1 µM | 43.7 | 61.9

CCN1\C=C(\C(O)=O)C(=O)C2=C1C=C(N3CCNCC3)C(=C2)F
AUC of viability dose-response curve
Conditions | NOMO1 | P12-Ichikawa [2] | SEM cells [1]
HPLM + 10% dialyzed FBS | 430 | 456 | 385
RPMI 5 mM glucose + 10% FBS | 465 | 433 | 392
RPMI 5 mM glucose + 10% dialyzed FBS | 455 | 449 | 404

cell viability [%], SEM cells [3]
Conditions | HPLM + 10% dialyzed FBS | RPMI 5 mM glucose + 10% dialyzed FBS
0.000781 µM | 95 | 117
0.00234 µM | 130 | 124
0.00702 µM | 125 | 125
0.0211 µM | 136 | 129
0.0632 µM | 116 | 108
0.19 µM | 59.4 | 48.3
0.569 µM | 112 | 114
1.71 µM | 77.9 | 104
5.12 µM | 90.6 | 98
15.4 µM | 59.8 | 101
46.1 µM | 78.8 | 77.8

COc1ccc(-c2ccc3c(N4CCOCC4)nc(N4C[C@@H](C)O[C@@H](C)C4)nc3n2)cc1CO
AUC of viability dose-response curve
Conditions | NOMO1 | P12-Ichikawa [2] | SEM cells [1]
HPLM + 10% dialyzed FBS | 304 | 336 | 343
RPMI 5 mM glucose + 10% FBS | 372 | 301 | 342
RPMI 5 mM glucose + 10% dialyzed FBS | 353 | 326 | 356

COc1ccc2cc([C@H](C)C(=O)O)ccc2c1
AUC of viability dose-response curve
Conditions | NOMO1 | P12-Ichikawa [2] | SEM cells [1]
HPLM + 10% dialyzed FBS | 465 | 448 | 412
RPMI 5 mM glucose + 10% FBS | 476 | 469 | 401
RPMI 5 mM glucose + 10% dialyzed FBS | 460 | 464 | 410

CC(C)(CO)[C@@H](O)C(=O)NCCC(=O)O
AUC of viability dose-response curve
Conditions | NOMO1 | P12-Ichikawa [2] | SEM cells [1]
HPLM + 10% dialyzed FBS | 440 | 466 | 469
RPMI 5 mM glucose + 10% FBS | 470 | 471 | 471
RPMI 5 mM glucose + 10% dialyzed FBS | 461 | 463 | 465

CCC1(c2ccccc2)C(=O)NCNC1=O
AUC of viability dose-response curve
Conditions | NOMO1 | P12-Ichikawa [2] | SEM cells [1]
HPLM + 10% dialyzed FBS | 442 | 471 | 441
RPMI 5 mM glucose + 10% FBS | 448 | 453 | 445
RPMI 5 mM glucose + 10% dialyzed FBS | 471 | 466 | 452

cell viability [%]
Conditions | HPLM + 10% dialyzed FBS | RPMI 5 mM glucose + 10% FBS | RPMI 5 mM glucose + 10% dialyzed FBS
P12-Ichikawa [4], 0.000781 µM | 103 | 104 | 94.5
P12-Ichikawa [4], 0.00234 µM | 114 | 111 | 109
P12-Ichikawa [4], 0.00702 µM | 118 | 122 | 118
P12-Ichikawa [4], 0.0211 µM | 120 | 128 | 115
P12-Ichikawa [4], 0.0632 µM | 120 | 134 | 120
P12-Ichikawa [4], 0.19 µM | 118 | 127 | 116
P12-Ichikawa [4], 0.569 µM | 121 | 129 | 117
P12-Ichikawa [4], 1.71 µM | 119 | 126 | 118
P12-Ichikawa [4], 5.12 µM | 116 | 142 | 126
P12-Ichikawa [4], 15.4 µM | 118 | 143 | 121
P12-Ichikawa [4], 46.1 µM | 119 | 131 | 117
SEM cells [3], 0.000781 µM | 94.6 | 100 | 91.6
SEM cells [3], 0.00234 µM | 104 | 112 | 115
SEM cells [3], 0.00702 µM | 105 | 108 | 123
SEM cells [3], 0.0211 µM | 78.7 | 76.1 | 84.4
SEM cells [3], 0.0632 µM | 102 | 106 | 108
SEM cells [3], 0.19 µM | 110 | 109 | 120
SEM cells [3], 0.569 µM | 114 | 108 | 117
SEM cells [3], 1.71 µM | 117 | 103 | 115
SEM cells [3], 5.12 µM | 116 | 116 | 114
SEM cells [3], 15.4 µM | 106 | 113 | 117
SEM cells [3], 46.1 µM | 122 | 117 | 109
